Data on 79 compounds can be found in PubChem BioAssay AID602215 (Sanford-Burnham Center for Chemical Genomics, 2012).

Each structure is given as a SMILES string. Calls of active or inactive are those of the source.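 Rule for the calls: active = IC50 of 20 µM or lower; inactive = the rest.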 Where only a bound is given, the exact number is not on record here.

The assay has as its system HL-1 cardiomyocytes, H2O2 injury, ATP luminescence, 2 h. The assay can be described thus: H2O2-induced HL-1 cell death suppression – ATP luminescence, dose response (AID 602215).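 Note: potency is for protection so actives raise ATP signal against peroxide damage.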
On to `CCOc1ccc2nc(NC(=O)CN3CCC(n4nnc5cc(F)ccc54)CC3)sc2c1`, for which the IC50 – broadly, the concentration needed to halve the response being measured – was > 79 µM (inactive).

`C[C@@H]1CN([C@@H](C)CO)C(=O)c2cc(NC(=O)Nc3ccccc3)ccc2O[C@H]1CN(C)C(=O)Nc1cccc2ccccc12`: the IC50 is > 79 µM (inactive).

Consider `O=CNc1cc(-c2ccc(C(=O)NC3CC3)cc2)cn2c(-c3ccccc3)cnc12`, for which the IC50 is > 79 µM (inactive).

`O=C(Nc1ccccc1)c1nc[nH]c1C(=O)NCCNC(=O)c1[nH]cnc1C(=O)Nc1ccccc1`: the IC50 is > 79 µM (inactive).

As to `CCc1nc2ccc(C(=O)Nc3cc(-c4ccccc4)ccc3OC)cn2c1N(C)Cc1nccs1`, the IC50 was > 79 µM (inactive).

As to `C=CCn1cnc2c(c1=O)c1nc3ccccc3nc1n2/N=C/c1cc(OC)c(OC)c(OC)c1`, the IC50 was > 79 µM (inactive).

In the case of `COC(=O)c1[nH]c2ccccc2c1NC(=O)CNC1CCCCC1`, the IC50 is > 79 µM (inactive).

On to `COc1cc(C(=O)Nc2nc(-c3cccs3)cs2)cc(OC)c1OC`, for which the IC50 was > 79 µM (inactive).

As to `CCOc1ccc(C(C(=O)NCC2CCCO2)N(C(=O)c2snc(C(N)=O)c2N)c2ccccc2F)cc1` (centres undefined), the IC50 is 10.4 µM.

For `CC(=O)Nc1ccc(S(=O)(=O)N(Cc2cccnc2)Cc2cc3ccccc3[nH]c2=O)cc1`, the 50% inhibitory concentration (IC50) was 11.7 µM.

Turning to `Cc1ccc(C(C(=O)NCc2ccccc2)N(Cc2ccco2)C(=O)c2snc(C(N)=O)c2N)o1` (centres undefined), the IC50 was > 79 µM (inactive).

As for `CCOC(=O)C1CCN(c2cc3c(cc2NC(=O)c2ccc(OC)c(OC)c2)n(C)c(=O)n3C)CC1`, the IC50 is > 79 µM (inactive).

For the compound `NC(=O)c1cc2ccccc2o/c1=N\NC(=O)c1ccc(F)cc1`, the IC50 was 3.33 µM.

With `Nc1c(C(=O)N/N=C/c2cccnc2)oc2nc(-c3ccccc3)cc(-c3ccco3)c12`, the IC50 was > 79 µM (inactive).

Consider `COc1nc(N/N=C/c2cc3c(cc2Br)OCO3)nc(N2CCOCC2)n1`, for which the IC50 was > 79 µM (inactive).

As for `COc1cccc(C(=O)Nc2c(C(N)=O)oc3ccccc23)c1`, the IC50 was 27.6 µM (inactive).

`COc1ccc(N(CC(=O)Nc2cccc(C(C)=O)c2)S(=O)(=O)c2ccc(NC(C)=O)cc2)cc1`: the IC50 is > 79 µM (inactive).

For the compound `CCOC(=O)c1c2c3c(cccc3n(C)c1=O)C(=O)c1ccccc1-2`, the IC50 was > 79 µM (inactive).

Consider `CCOc1ccc(C(C(=O)NC2CCCC2)N(C(=O)c2snc(C(N)=O)c2N)c2cccc(O)c2)cc1` (centres undefined), for which the IC50 is 4.32 µM.

For the compound `CCOc1cc(-c2cc(-c3ccc(N)cc3)nc(N)c2C#N)ccc1O`, the IC50 was > 79 µM (inactive).

For `O=C(Nc1ccccc1)c1nc[nH]c1C(=O)NCCCCNC(=O)c1[nH]cnc1C(=O)Nc1ccccc1`, the IC50 is 39.6 µM (inactive).

For the compound `CCOC(=O)C1CCN(c2cc3c(cc2NC(=O)c2ccccc2)n(C)c(=O)n3C)CC1`, the IC50 is > 79 µM (inactive).

As for `O=C1OCCN1C(=O)[C@H]1[C@H](c2ccc([N+](=O)[O-])cc2)C(c2ccc(F)cc2)=NN1c1ccc(Br)cc1`, the IC50 is > 79 µM (inactive).

As for `COc1ccccc1NC(=O)c1cc(-c2cc(OC)c(OC)c(OC)c2)nc2ccccc12`, the IC50 is 13.4 µM.

Turning to `COC(=O)c1cc2ccccn2c2c(C(=O)OC)c(C(=O)OC)cc1-2`, the IC50 was > 79 µM (inactive).

As to `COc1cc(/C=N/NC(=O)c2ccccc2)ccc1OS(=O)(=O)c1ccccc1`, the IC50 is > 79 µM (inactive).

Consider `COc1ccc(-c2cnc3c(NC=O)cc(-c4cccc(NS(C)(=O)=O)c4)cn23)cc1OC`, for which the concentration for half-maximal inhibition (IC50) is 6.15 µM.

Consider `COc1cc(-c2cc(C(=O)Nc3ccccc3N3CCOCC3)c3ccccc3n2)cc(OC)c1OC`, for which the IC50 is 4.24 µM.

Take `COc1ccc(C(=O)Nc2cccc(NC(=O)c3ccc(OC)c(OC)c3)n2)cc1OC`: the IC50 is > 79 µM (inactive).

As for `CC1Nc2ncnc(N3CCN(c4ccccc4)CC3)c2N(Cc2ccc(Cl)cc2)C1=O` (centres undefined), the IC50 was > 79 µM (inactive).

`COc1ccccc1CN(C(=O)CNC(=O)c1ccco1)C(C(=O)NCC1CCCO1)c1ccccc1` (centres undefined): the IC50 is > 79 µM (inactive).

As to `COc1cc(-c2cc3nc(NCCc4ccc(S(N)(=O)=O)cc4)ccn3n2)cc(OC)c1OC`, the half-inhibitory concentration (IC50) is 15.1 µM.

As to `CC(=O)Nc1cc(-c2ccc(C(=O)NC3CC3)cc2)cn2c(-c3cccc(C(C)=O)c3)cnc12`, the IC50 was > 79 µM (inactive).

In the case of `CC12C=CC(=O)CC1CCC1C2CCC2(C)C(O)C(O)CC12` (centres undefined), the IC50 is > 79 µM (inactive).

For `COc1ccc(-c2cc(C(=O)N(C)Cc3nc4ccccc4c(=O)[nH]3)c3ccccc3n2)cc1OC`, the IC50 was 21.3 µM (inactive).

As to `COc1ccccc1N1CCN(C(=O)c2ccc3nc(-c4ccco4)c(-c4ccco4)nc3c2)CC1`, the IC50 is > 79 µM (inactive).

As to `CS(=O)(=O)c1ccc(-c2cnc3c(NC=O)cc(-c4ccsc4)cn23)cc1`, the IC50 is 8.73 µM.

`CC(=O)c1ccc(-c2ccc(C(=O)Nc3nc(-c4ccccn4)cs3)o2)cc1`: the IC50 was > 79 µM (inactive).

Regarding `CC(=O)c1ccc(-c2cnc3c(NC=O)cc(-c4ccc(C(=O)NC5CC5)cc4)cn23)cc1`, the IC50 is > 79 µM (inactive).

Regarding `COc1ccc(-c2cc(-c3nnc(COC(=O)C4CC4)o3)c3ccccc3n2)cc1OC`, the IC50 is > 79 µM (inactive).

For the compound `CCn1nc(C(=O)Nc2nc(-c3ccccn3)cs2)c2ccccc2c1=O`, the IC50 is 33 µM (inactive).

On to `O=C(CNC(=O)c1nc[nH]c1C(=O)NCC(=O)OCc1ccccc1)OCc1ccccc1`, for which the IC50 is > 79 µM (inactive).

Regarding `COc1ccc(Nc2nnc(SCc3cc(=O)n4ccsc4n3)s2)cc1`, the IC50 is > 79 µM (inactive).

On to `COc1cc(-c2cc(NC(C)=O)c3ncc(-c4ccc(F)cc4)n3c2)cc(OC)c1OC`, for which the IC50 was > 79 µM (inactive).

Take `CNC(=O)c1ccc(-c2sc3nc(N4CCOCC4)c4c(c3c2N)CC(C)(C)OC4)o1`: the concentration for half-maximal inhibition (IC50) was 1.84 µM.

For the compound `CC(OC(=O)c1cc(-c2cccnc2)nc2ccccc12)C(=O)Nc1ccc2ccccc2c1` (centres undefined), the IC50 was > 79 µM (inactive).

For `COc1ccc(-c2csc(NC(=O)CCCc3nc4ccccc4c(=O)[nH]3)n2)cc1OC`, the IC50 is 11.9 µM.

Consider `O=C(Nc1ccccc1)c1nc[nH]c1C(=O)NCCCCCCNC(=O)c1[nH]cnc1C(=O)Nc1ccccc1`, for which the IC50 is 3.45 µM.

On to `COc1cc(NC(=O)c2ccco2)c(OC)cc1NC(=O)c1cc(OC)c(OC)c(OC)c1`, for which the IC50 is 21 µM (inactive).

As for `COc1ccc(-n2c(/C=C/c3ccc(O)c(OC)c3)nc3ccccc3c2=O)cc1`, the half-inhibitory concentration (IC50) is 12.1 µM.

For `COc1cc(/C=N/NC(=O)NC23CC4CC(CC(C4)C2)C3)ccc1OCC(N)=O`, the IC50 is 48.3 µM (inactive).

Consider `COc1cccc(-c2cnc3c(NC=O)cc(-c4cccc(NC(C)=O)c4)cn23)c1`, for which the IC50 is > 79 µM (inactive).

Consider `COc1ccc(-c2csc(NC(=O)c3ccc(OCC(=O)N4CCOCC4)c(OC)c3)n2)cc1OC`, for which the IC50 was 12.3 µM.

Regarding `Cc1ccc(-c2csc(N3CCC[C@@H]3C(=O)NCCn3c(-c4ccncc4)nc4ccccc43)n2)cc1`, the IC50 was > 79 µM (inactive).

Regarding `COc1ccc(CCNC(=O)C(=O)NCC2CCCN2S(=O)(=O)c2ccccc2)cc1OC` (centres undefined), the IC50 is > 79 µM (inactive).

For `COc1ccc(-c2cc(C(=O)Nc3ccccc3N3CCOCC3)c3ccccc3n2)cc1OC`, the IC50 was 4.35 µM.

Regarding `COc1cc(CN2C[C@@H](CO)O[C@@H](n3cnc4c(Nc5ccccc5)ncnc43)C2)cc(OC)c1OC`, the IC50 was 20.5 µM (inactive).

As to `O=[N+]([O-])c1ccc(Nc2nc(N/N=C/c3cccc(F)c3)nc(N3CCCC3)n2)cc1`, the IC50 was > 79 µM (inactive).

Turning to `O=C(Nc1cc(S(=O)(=O)N2CCOCC2)ccc1N1CCCCC1)c1cc(-c2ccccn2)nc2ccccc12`, the IC50 is 3.6 µM.

Turning to `CCN(CC)C(=O)c1[nH]cnc1C(=O)NCC(=O)OCc1ccccc1`, the IC50 was > 79 µM (inactive).

For `Cc1nn(-c2ccccc2)c(N2CCCC2)c1/C=N/NC(=O)c1cc(-c2ccccn2)nc2ccccc12`, the IC50 is > 79 µM (inactive).

As for `O=C(c1cc(=O)[nH]c2ccccc12)N1CCN(S(=O)(=O)c2ccc(Cl)cc2)CC1`, the IC50 is > 79 µM (inactive).

For `CCOC(=O)C(Cc1ccc(NC(=O)/C(=C/c2ccc(OC(C)=O)cc2)NC(C)=O)cc1)N1C(=O)c2ccccc2C1=O` (centres undefined), the IC50 is 32.5 µM (inactive).

On to `COc1ccccc1OP(=O)(Nc1cccnc1)Oc1ccccc1OC`, for which the IC50 is > 79 µM (inactive).

Turning to `COc1cccc(Nc2nc(-c3sc(NC(=O)c4ccco4)nc3C)cs2)c1`, the IC50 was 26.4 µM (inactive).

With `COc1ccc(-c2cc3nc(-c4ccccc4)cc(N4CCN(C(C)=O)CC4)n3n2)cc1`, the IC50 was 1.59 µM.

For `CC(=O)c1cccc(-c2cnc3c(NC=O)cc(-c4ccccc4F)cn23)c1`, the concentration for half-maximal inhibition (IC50) was 3.28 µM.

For `CCCn1nc(C(=O)Nc2nc(-c3ccccn3)cs2)c2ccccc2c1=O`, the concentration for half-maximal inhibition (IC50) is 7.02 µM.

Take `CC(C)(C)OC(=O)N1CCC(NC(=O)c2nc[nH]c2C(=O)NCC(=O)OCc2ccccc2)CC1`: the IC50 was > 79 µM (inactive).

On to `COc1cc2[nH]c(=O)n3nc(-c4ccccc4)nc3c2cc1OC`, for which the IC50 was > 79 µM (inactive).

Turning to `COc1cc(C(=O)N/N=C/c2ccc(OC(=O)c3cccc(C)c3)c(OC)c2)ccc1O`, the IC50 is 31.2 µM (inactive).

Regarding `Cc1cc(C)c2c(N)c(C(=O)N/N=C/c3cccnc3)sc2n1`, the IC50 was > 79 µM (inactive).

As for `Cc1ccc(NC(=O)c2nc[nH]c2C(=O)NCCCNC(=O)c2[nH]cnc2C(=O)Nc2ccc(C)cc2)cc1`, the IC50 was > 79 µM (inactive).

On to `CC(C)=NNc1cnnc2ccc([N+](=O)[O-])cc12`, for which the IC50 is > 79 µM (inactive).

On to `COc1cccc(/C=N/NC(=O)c2oc3nc(-c4ccccc4)cc(-c4ccco4)c3c2N)c1`, for which the IC50 was > 79 µM (inactive).

Turning to `CCOc1ccccc1NC(=O)c1oc2ccccc2c1NC(=O)C1CCCO1` (centres undefined), the IC50 was > 79 µM (inactive).

Regarding `Cc1ccc(C=NNc2nc3c([nH]2)c(=O)n(C)c(=O)n3C)cc1`, the IC50 is > 79 µM (inactive).

Consider `CCN(CC(=O)Nc1ccc(OC)cc1)C(=O)c1cc(-c2cccs2)nn1-c1ccccc1`, for which the IC50 is > 79 µM (inactive).

For the compound `COc1cc(NC(=O)c2cc3nc(-c4ccccc4)cc(-c4ccccc4)n3n2)cc(OC)c1OC`, the 50% inhibitory concentration (IC50) is 8.71 µM.
